The values below come from patent US20140134169A1, “Methods of Treating Ovarian Cancer with Dll4 Antagonists” (Regeneron Pharmaceuticals, Inc., priority 2012, published 2014).

In assay [1] the test system is human HCT116 tumor cells (CRC). Briefly: Growth of human HCT116 tumors in humanized Dll4 SCID mice (5-FU study). It counts as in vivo. As for the experimental part:
Each mouse was implanted subcutaneously (sc) with 5×10^6 human HCT116 tumor cells (CRC). […] The mice were then treated with hFc, REGN421, 5-FU or combination of REGN421 and 5-FU. A total of 30 mice were divided into 6 groups (n=5 per cohort). The first group was treated sc with hFc at 2 mg/kg; the second group was treated sc with REGN421 at 2 mg/kg; the third and fourth groups were treated ip with 5-FU at 15 and 25 mg/kg, respectively; the fifth group was treated sc with REGN421 at 2 mg/kg and ip with 5-FU at 15 mg/kg; and the sixth group was treated sc with REGN421 at 2 mg/kg and ip with 5-FU at 25 mg/kg. REGN421 was administered every 3-4 days starting on day 22 and mice received three doses total. 5-FU was administered every 3-4 days starting on day 22 and mice received three doses total.
To assess the effects of REGN421 and 5-FU as single agents or in combination, the changes in tumor size (volume) were measured, beginning three days before the initial REGN421 treatment, and then on the day of each agent treatment (days 22, 26, 29) and thereafter every 3-4 days until tumors reach ˜600 mm^3 in size. In vivo tumor size is calculated using the formula (length×width^2)/2 (FIG. 3 and Table 5).

The test system of assay [2] is human VM-Cub1 tumor cells (bladder carcinoma cells). As to the kind of experiment: Growth of human VM-Cub1 tumors implanted in humanized Dll4 SCID mice. The assay is classed as in vivo. The conditions noted are these: for TGI(%): day 32; for TGD: to 600 mm3. How it is done: The humanized Dll4 SCID mouse was made by replacing the entire extracellular domain of the mouse Dll4 gene with the corresponding extracellular region of the human Dll4 gene (7 kb) in embryonic stem (ES) cells. Homozygous hDll4 mice were generated and bred into SCID background.
A total of 45 mice were divided into nine groups (n=5 per cohort). The first group was treated subcutaneously (sc) with hFc at 2 mg/kg; the second and third groups were treated sc with REGN421 at 0.5 and 2 mg/kg, respectively; the fourth and fifth groups were treated intraperitoneally (ip) with cisplatin at 0.5 and 2 mg/kg, respectively; the sixth group was treated sc with REGN421 at 0.5 mg/kg and ip with cisplatin at 0.5 mg/kg; the seventh group was treated sc with REGN421 at 0.5 mg/kg and ip with cisplatin at 2 mg/kg; the eighth group was treated sc with REGN421 at 2 mg/kg and ip with cisplatin at 0.5 mg/kg; and the ninth group was treated sc with REGN421 at 2 mg/kg and ip with cisplatin at 2 mg/kg. REGN421 was administered every 3-4 days starting on day 14 and mice received three doses total. Cisplatin was administered every 24 hours starting on day 14; mice received four doses total.
To assess the effects of REGN421 and cisplatin as single agents or in combination treatments, the changes in tumor size were recorded. Tumor growth was measured three days before the initial REGN421 treatment, on the day of each REGN421 treatment (days 14, 17 and 21) and thereafter every 3-4 days until tumors reached ˜600 mm3 in size. In vivo tumor size was calculated using the formula (length×width2)/2 (FIG. 1 and Table 1).
Tumor Growth Inhibition, TGI, was determined by calculating the difference in tumor size for treated (T) versus vehicle control (C) tumor at the day the control cohort was euthanized (i.e., at day 32); TGI=[1−(Tfinal−Tinitial)/(Cfinal−Cinitial)]×100.
(§1) Tumor growth delay, TGD, was assessed as the difference in days between treated (T) versus control (C) tumors when each cohort reached a specified tumor size. The predetermined tumor size for this experiment was 600 mm^3.

Assay [3] has as its system human A549 tumor cells (non-small cell lung cancer). Briefly: Growth of human A549 tumors implanted in humanized Dll4 SCID mice. The assay is classed as in vivo. How it is done:
as §1
Each mouse was implanted subcutaneously (sc) with 5×10^6 human A549 tumor cells (non-small cell lung cancer or “NSCLC”). […] A total of 36 mice were divided into 6 groups (n=6 per cohort). The first group was treated sc with hFc at 2 mg/kg; the second group was treated sc with REGN421 at 2 mg/kg; the third and fourth groups were treated ip with cisplatin at 2.5 and 4.5 mg/kg, respectively; the fifth group was treated sc with REGN421 at 2 mg/kg and ip with cisplatin at 2.5 mg/kg; and the sixth group was treated sc with REGN421 at 2 mg/kg and ip with cisplatin at 4.5 mg/kg. REGN421 was administered every 3-4 days starting on day 29 and mice received three doses total. Cisplatin was administered every 24 hours starting on day 29 and mice received two doses total.
To assess the effects of REGN421 and cisplatin as single agents or in combination we measured tumor size (volume), beginning three days before the initial REGN421 treatment, on the day of each agent treatment (days 29, 30, 33, 36) and thereafter every 3-4 days until tumors reached ˜600 mm^3 in size.

In assay [4] the test system is rat C6 tumor cells (glioblastoma cells). Briefly: Growth of rat C6 tumors implanted in SCID mice. The assay is classed as in vivo. How it is done:
Each mouse was implanted subcutaneously (sc) with 1×10^6 rat C6 tumor cells (glioblastoma cells). […] Since these mice expressed mouse Dll4, the Dll4 Ab used in this experiment was prepared in-house, based on the published sequence (WO 2007/143689), and designated as REGN577. […] A total of 30 tumor-bearing male mice were randomized into six groups (N=5). […] Tumor size was calculated using the formula, (length×width2)/2.
TGI and TGD were determined (Table 3).

The subject of assay [5] is human MDA-MB-231 breast tumor cells. Briefly: Growth of human MDA-MB-231 breast tumors implanted in SCID mice.
Protocol: The effect of anti-Dll4 antibody in combination with docetaxel (TAXOTERE®, sanofi-aventis) on tumor growth was evaluated on tumors implanted in Severe Combined Immunodeficiency (SCID) mice. […] After the tumors were established in the mice (tumor size of ˜150-200 mm^3, approximately 45 days after implantation), mice were treated with hFc, docetaxel, Dll4 antibody, or a combination of docetaxel plus Dll4 antibody. A total of 25 tumor-bearing male mice were randomized into five groups (N=5 mice per group). […] Docetaxel and/or Dll4 antibody were administered on the same day. Animals were treated 2 times per week and received a total of 3 doses. Starting from the day of initial treatment, body weight and tumors were measured twice a week until the mice are euthanized. Mice were euthanized when tumors reached ˜600 mm^3 in size. Tumor size was calculated using the formula (length×width^2)/2.
The control tumors reached ˜600 mm^3 and were harvested on day 63.
A further assay has as its system human HCT116 tumor cells. As to the kind of experiment: Growth of human HCT116 tumors in humanized Dll4 SCID mice (irinotecan study). The assay is classed as in vivo. As for the experimental part:
Each mouse was implanted subcutaneously (sc) with 5×10^6 human HCT116 tumor cells. […] The mice were then treated with hFc, REGN421, irinotecan or combination of REGN421 and irinotecan. A total of 30 mice were divided into 6 groups (n=5 per cohort). The first group was treated sc with hFc at 2 mg/kg; the second group was treated sc with REGN421 at 2 mg/kg; the third and fourth groups were treated ip with irinotecan at 7.5 and 25 mg/kg, respectively; the fifth group was treated sc with REGN421 at 2 mg/kg and ip with irinotecan at 7.5 mg/kg; and the sixth group was treated sc with REGN421 at 2 mg/kg and ip with irinotecan at 25 mg/kg. REGN421 was administered every 3-4 days starting on day 15 and mice received three doses total. Irinotecan was administered every 3-4 days starting on day 15 and mice received three doses total.
To assess the effects of REGN421 and irinotecan as single agents or in combination treatments, the changes in tumor size (volume) are measured, starting three days before the initial REGN421 treatment, and then on the day of each agent treatment (days 15, 19, 22) and thereafter every 3-4 days until tumors reach ˜600 mm^3 in size. In vivo tumor size is calculated using the formula (length×width^2)/2.

Another assay concerns A2780 cells. As to the kind of experiment: A2780 ovarian xenograft (intraperitoneal) tumor growth inhibition. The assay is classed as in vivo, human. The conditions noted are these: SCID mice (native murine Dll4); REGN421 2.5 mg/kg 1x/week, mDll4Ab1 5 mg/kg 1x/week, VEGF-Trap 10 mg/kg 2x/week. How it is done:
Ovarian tumor xenograft cells were implanted into humanized Dll4 SCID mice or vendor SCID mice (i.e., SCID mice expressing native murine Dll4). After implantation, mice were treated with REGN421 (anti-human Dll4 antibody, binds to human Dll4), mDll4Ab1 (anti-murine Dll4 antibody, binds to murine Dll4), or a human Fc domain control protein. In one study, mice were treated with VEGF-Trap, mDll4Ab1 or VEGF-Trap plus mDll4Ab1. TOV-112D cells (5×10^6) were implanted subcutaneously into the right flank of humanized Dll4 (n=4) or vendor SCID mice (n=7). Treatment with REGN421 (2.5 mg/kg, 1×/week) or mDll4Ab1 (5 mg/kg, 1×/week) vs. hFc control was initiated one week after tumor cell implantation. Animals were treated for 2 to 3 weeks. A2780 cells (2×10^6) were implanted intraperitoneally into humanized Dll4 or vendor SCID mice (n=4-5). Treatment with REGN421 (2.5 mg/kg, 1×/week) or mDll4Ab1 (5 mg/kg, 1×/week) vs. hFc control was initiated one week after tumor cell implantation. For the A2780 combination study, simultaneous treatment with mDll4Ab1 (5 mg/kg, 1×/week) and VEGF-Trap (10 mg/kg, 2×/week) was initiated one week after tumor cell implantation. A VEGF-Trap single treatment arm was included in this study. Animals bearing A2780 tumors were treated for 4-5 weeks. SKOV-3 cells (5×10^6) in matrigel were implanted subcutaneously and tumor-bearing animals (n=10) were dosed with REGN421 (2.5 mg/kg) and mDll4Ab1 (5 mg/kg) once weekly. OVCAR-3 cells (1×10^7) were implanted subcutaneously into the right flank of vendor SCID mice (n=7). Treatment with mDll4Ab1 (5 mg/kg 1×/week) vs. hFc control was initiated 66 days after tumor cell implantation. Animals were treated for a total of 5 weeks. Tumor growth inhibition (TGI) was measured as detailed above.
A general note: In xenograft studies the graft and the host belong to different species.

The mark [6] stands for this setting: 5-FU 15 mg/kg ip (45 mg/kg total).
The mark [7] stands for this setting: 5-FU 25 mg/kg ip (75 mg/kg total).
Where [8] appears, read: cisplatin 2.5 mg/kg ip (5 mg/kg total).
The mark [9] stands for this setting: cisplatin 4.5 mg/kg ip (9 mg/kg total).
Setting [10] is: docetaxel 4.5 mg/kg iv (13.5 mg/kg total).
Where [11] appears, read: docetaxel 6 mg/kg iv (18 mg/kg total).
Setting [12] is: irinotecan 7.5 mg/kg ip (22.5 mg/kg total).
Setting [13] is: irinotecan 25 mg/kg ip (75 mg/kg total).

As for `O=c1[nH]cc(F)c(=O)[nH]1` [5-FU, 5-fluorouracil], in assay [1] (setting [6]), the “TGD” value is reported as 4 days and the “TGI(%) at Day 39” value was found to be 5.6%. Besides, in assay [1] (setting [7]), the “TGD” value came to 2 days and the “TGI(%) at Day 39” value came out at 0%.
Turning to `N.N.[Cl][Pt][Cl]` [Cisplatin, cis-diamminedichloroplatinum], the “Euthanized” value in assay [2] (cisplatin 0.5 mg/kg/dose ip x4) came to 45 days; in assay [2] (cisplatin 2 mg/kg/dose ip x4) it was 41 days. Besides, the “TGI(%)” value was 60.7% in assay [2] (cisplatin 0.5 mg/kg/dose ip x4); 61% in assay [2] (cisplatin 0.5 mg/kg/dose ip x4, listed as cisplatin); 53.8% in assay [2] (cisplatin 2 mg/kg/dose ip x4); 54% in assay [2] (cisplatin 2 mg/kg/dose ip x4, listed as cisplatin). In addition, the “TGD” value in assay [2] (cisplatin 0.5 mg/kg/dose ip x4) amounted to 13 days; in assay [2] (cisplatin 2 mg/kg/dose ip x4), 9 days; in assay [3] (setting [8]) it was 4 days; in assay [3] (setting [9]), 11 days. For the same compound, the entries for the “TGI (%) at Day 57” value in assay [3] (setting [8]) and in assay [3] (setting [9]) were 35% and 22%, respectively.
Consider `CC(=O)O[C@@]12CO[C@@H]1C[C@H](O)[C@@]1(C)C(=O)[C@H](O)C3=C(C)[C@@H](OC(=O)[C@H](O)[C@@H](NC(=O)OC(C)(C)C)c4ccccc4)C[C@@](O)([C@@H](OC(=O)c4ccccc4)[C@H]21)C3(C)C` [Docetaxel, docetaxel], for which the “TGD” value was found to be 6 days in assay [4] (setting [10]), 7 days in assay [4] (setting [11]), 4 days in assay [5] (setting [10]) and 4 days in assay [5] (setting [11]). Also, the “TGI(%) at Day 25” value is listed as 62% in assay [4] (setting [10]), 70% in assay [4] (setting [11]), 37% in assay [5] (setting [10]) and 52% in assay [5] (setting [11]).
As to `CCc1c2c(nc3ccc(OC(=O)N4CCC(N5CCCCC5)CC4)cc13)-c1cc3c(c(=O)n1C2)COC(=O)[C@]3(O)CC` [Irinotecan, irinotecan], in the assay on human HCT116 tumor cells (setting [12]), the “TGD” value worked out at 8 days and the “TGI(%) at Day 39” value is 71.2%. Also, in the assay on human HCT116 tumor cells (setting [13]), the “TGD” value is 16 days and the “TGI(%) at Day 39” value is 100.5%.
“VEGF-Trap: VEGF receptor-based chimeric molecule, SEQ ID NO:121 [reference compound]”: the “% TGI” value with A2780 cells came to 88%.
